The values that follow are results of earlier work, collected in US20070219192A1, “Certain chemical entities, compositions, and methods” (priority 2005, published 2007).

For this series, the system named is A549 cells. As to conditions: data provided by National Cancer Institute, Developmental Therapeutic Program.
As usually defined, the GI50 is the concentration that inhibits growth by half. `CC(=O)O[C@H]1C(=O)[C@@]2(C)[C@H]([C@H](OC(=O)c3ccccc3)[C@]3(O)C[C@H](OC(=O)[C@H](O)[C@@H](NC(=O)c4ccccc4)c4ccccc4)C(C)=C1C3(C)C)[C@]1(OC(C)=O)CO[C@@H]1C[C@@H]2O` [paclitaxel]: the GI50 is 4 nM.

For the compound `O=c1[nH]cc(F)c(=O)[nH]1` [5-fluorouracil], the GI50 was 1000 nM. On to `NC(=O)NO` [hydroxyurea], for which the concentration for 50% growth inhibition (GI50) was 500000 nM. With `COc1cccc2c1C(=O)c1c(O)c3c(c(O)c1C2=O)C[C@@](O)(C(=O)CO)C[C@@H]3O[C@H]1C[C@H](N)[C@H](O)[C@H](C)O1` [doxorubicin], the GI50 was 63 nM.
